Some test systems named below: Escherichia coli 078; Escherichia coli K88; Escherichia coli K99; Escherichia coli UB1005; Staphylococcus xylosus; Candida albicans.
Test in all cases: ≥ marks a high value that may be exact or a test limit, other limits are often not marked, values filed in µg/mL are converted to µM
In assay [1] the test system is Candida parapsilosis CGMCC 2.3989.
Assay [2] relates to Candida tropicalis CGMCC 2.1975.
The test system of assay [3] is Pseudomonas aeruginosa ATCC 27853.
For assay [4], the system named is Salmonella enterica subsp. enterica serovar Pullorum ATCC 7913.
Assay [5] has as its system Salmonella enterica subsp. enterica serovar Typhimurium ATCC 14028.
The subject of assay [6] is Salmonella enterica subsp. enterica serovar Typhimurium C77-31.
The subject of assay [7] is Staphylococcus aureus ATCC 25923.
The subject of assay [8] is Staphylococcus aureus ATCC 43300.
Assay [9] relates to Staphylococcus epidermidis ATCC 12228.
The subject of assay [10] is Escherichia coli ATCC 25922.
Assay [11] has as its system Staphylococcus aureus ATCC 12600.
Assay [12] relates to Streptococcus mutans ATCC 25175.
Assay [13] concerns Pseudomonas aeruginosa 253.
Assay [14] relates to Pseudomonas aeruginosa 910.
For assay [15], the system named is Pseudomonas aeruginosa 919.
In assay [16] the test system is Pseudomonas aeruginosa PAO1.
Assay [17] concerns Escherichia coli DH5alpha.
In assay [18] the test system is Enterococcus faecalis ATCC 29212.
In assay [19] the test system is Pseudomonas aeruginosa H103.
Assay [20] deals with Salmonella enterica serovar Typhimurium.
In assay [21] the test system is Staphylococcus epidermidis.
Assay [22] concerns Escherichia coli ATCC 27325.

The structures appear in SMILES notation. Values after ≈ are worked out from the molar mass of the structure shown.

Drawing on DBAASP, this text covers MIC for eleven compounds.

With `CC[C@H](C)[C@H](NC(=O)[C@H](CCCN=C(N)N)NC(=O)[C@H](C)NC(=O)[C@H](C)N)C(=O)N[C@H](C(=O)N[C@@H](CC(C)C)C(=O)N[C@@H](CCCN=C(N)N)C(=O)N[C@@H](C)C(=O)N[C@@H](CCCN=C(N)N)C(=O)N[C@@H](Cc1ccccc1)C(=O)N[C@@H](CCCN=C(N)N)C(N)=O)[C@@H](C)CC` [AARIILRARFR], the MIC – broadly, the smallest concentration in the dilution series that meets the test's criterion for growth inhibition – in assay [1] was determined as 16 µM (≈ 21.5 µg/mL); in assay [2] it was 4 µM (≈ 5.37 µg/mL); with Escherichia coli 078, 4 µM (≈ 5.37 µg/mL); in the assay on Escherichia coli K88 it was 2 µM (≈ 2.68 µg/mL); against Escherichia coli K99, 2 µM (≈ 2.68 µg/mL); in the assay with Escherichia coli UB1005 it was 2 µM (≈ 2.68 µg/mL). Besides, the MIC in assay [3] came out at 16 µM (≈ 21.5 µg/mL); in assay [4], 4 µM (≈ 5.37 µg/mL); in [5], 4 µM (≈ 5.37 µg/mL); in [6], 4 µM (≈ 5.37 µg/mL); in assay [7] it was 4 µM (≈ 5.37 µg/mL); in assay [8] it was 2 µM (≈ 2.68 µg/mL). Besides, the MIC in assay [9] is 2 µM (≈ 2.68 µg/mL).
`CC[C@H](C)[C@H](NC(=O)[C@H](CCCN=C(N)N)NC(=O)[C@H](CC(C)C)NC(=O)[C@@H](NC(=O)[C@@H](NC(=O)[C@H](CCCN=C(N)N)NC(=O)[C@H](C)NC(=O)[C@H](C)N)[C@@H](C)CC)[C@@H](C)CC)C(=O)N[C@@H](CCCN=C(N)N)C(=O)N[C@@H](Cc1ccccc1)C(=O)N[C@@H](CCCN=C(N)N)C(N)=O` [AARIILRIRFR]: the MIC in assay [1] came to 4 µM (≈ 5.54 µg/mL); in [2] it was 4 µM (≈ 5.54 µg/mL); against Escherichia coli 078, 2 µM (≈ 2.77 µg/mL); with Escherichia coli K88, 2 µM (≈ 2.77 µg/mL); in the assay on Escherichia coli K99, 4 µM (≈ 5.54 µg/mL); in the assay with Escherichia coli UB1005, 4 µM (≈ 5.54 µg/mL). Further, the MIC in assay [3] was 16 µM (≈ 22.1 µg/mL); in [4], 2 µM (≈ 2.77 µg/mL); in [5], 2 µM (≈ 2.77 µg/mL); in assay [6] it was 4 µM (≈ 5.54 µg/mL); in assay [7], 2 µM (≈ 2.77 µg/mL); in [8] it was 2 µM (≈ 2.77 µg/mL). Moreover, in assay [9], the MIC came out at 2 µM (≈ 2.77 µg/mL).
For `CC[C@H](C)[C@H](NC(=O)[C@H](C)NC(=O)CNC(=O)[C@H](Cc1ccccc1)NC(=O)[C@H](CC(C)C)NC(=O)CN)C(=O)N[C@@H](C)C(=O)NCC(=O)N[C@@H](Cc1ccccc1)C(=O)N[C@H](C(=O)N[C@@H](CCCCN)C(=O)N[C@@H](CCCCN)C(=O)NCC(=O)N[C@@H](Cc1c[nH]c2ccccc12)C(=O)N[C@@H](CCCCN)C(=O)NCC(=O)N[C@@H](CCSC)C(=O)N[C@H](C(=O)N[C@@H](CCCCN)C(=O)NCC(N)=O)C(C)C)[C@@H](C)CC` [GLFGAIAGFIKKGWKGMVKG], the minimum inhibitory concentration (MIC) in assay [10] turned out to be 7.6 µM (≈ 15.7 µg/mL); in assay [3], 7.6 µM (≈ 15.7 µg/mL); in [11], 3.8 µM (≈ 7.85 µg/mL); in [12] it was 1.9 µM (≈ 3.92 µg/mL).
Consider `CC[C@H](C)[C@H](N)C(=O)N[C@@H](CC(C)C)C(=O)N[C@@H](CCCCN)C(=O)N[C@@H](Cc1c[nH]c2ccccc12)C(=O)N[C@@H](CCCCN)C(=O)N[C@@H](CCCCN)C(=O)NCC(=O)N[C@@H](Cc1c[nH]c2ccccc12)C(=O)N[C@@H](Cc1c[nH]c2ccccc12)C(=O)N[C@@H](CCCCN)C(=O)N[C@@H](Cc1c[nH]c2ccccc12)C(=O)N[C@@H](Cc1ccccc1)C(=O)N[C@@H](CCCN=C(N)N)C(N)=O` [ILKWKKGWWKWFR], for which the MIC in assay [13] came to 8 µM (≈ 14.9 µg/mL); in assay [14] it was 4 µM (≈ 7.45 µg/mL); in assay [15], 16 µM (≈ 29.8 µg/mL); in assay [16], 4 µM (≈ 7.45 µg/mL).
With `CC[C@H](C)[C@H](N)C(=O)N[C@@H](CC(C)C)C(=O)N[C@@H](CCCCN)C(=O)N[C@@H](Cc1c[nH]c2ccccc12)C(=O)N[C@@H](CCCCN)C(=O)N[C@@H](CCCN=C(N)N)C(=O)N[C@@H](CCCCN)C(=O)N[C@@H](Cc1c[nH]c2ccccc12)C(=O)N[C@@H](Cc1c[nH]c2ccccc12)C(=O)N[C@@H](CCCCN)C(=O)N[C@@H](Cc1c[nH]c2ccccc12)C(=O)N[C@@H](CCCN=C(N)N)C(=O)N[C@@H](CCCN=C(N)N)C(N)=O` [ILKWKRKWWKWRR], the MIC in assay [13] worked out at 4 µM (≈ 7.88 µg/mL); in [14], 2 µM (≈ 3.94 µg/mL); in assay [15] it was 16 µM (≈ 31.5 µg/mL); in assay [16], 1 µM (≈ 1.97 µg/mL).
Turning to `NCCCC[C@H](NC(=O)[C@H](CCCCN)NC(=O)[C@H](CCCCN)NC(=O)[C@H](Cc1ccccc1)NC(=O)[C@H](Cc1ccccc1)NC(=O)[C@H](Cc1ccccc1)NC(=O)[C@H](Cc1ccccc1)NC(=O)[C@H](Cc1ccccc1)NC(=O)[C@H](CCCCN)NC(=O)[C@H](CCCCN)NC(=O)[C@@H](N)CCCCN)C(=O)O` [KKKFFFFFKKK], the MIC in [17] stood at 16 µM (≈ 24.4 µg/mL); with Staphylococcus xylosus, 4 µM (≈ 6.09 µg/mL).
On the same counts, the results for `CC[C@H](C)[C@H](NC(=O)[C@H](CCCCN)NC(=O)[C@H](CCCN=C(N)N)NC(=O)[C@@H](N)CCCCN)C(=O)N[C@@H](CCCCN)C(=O)N[C@@H](CCCN=C(N)N)C(=O)N[C@@H](CCCCN)C(=O)O` [KRKIKRK] are no less than 64 µM and no less than 64 µM.
On the same counts, the results for `CC[C@H](C)[C@H](NC(=O)[C@H](CC(C)C)NC(=O)[C@H](CCCCN)NC(=O)[C@H](CCCN=C(N)N)NC(=O)[C@@H](N)CCCCN)C(=O)N[C@@H](CC(C)C)C(=O)N[C@@H](CCCCN)C(=O)N[C@@H](CCCN=C(N)N)C(=O)N[C@H](C(=O)N[C@@H](CC(C)C)C(=O)N[C@H](C(=O)N[C@@H](CCCCN)C(=O)N[C@@H](CCCN=C(N)N)C(=O)N[C@@H](CCCCN)C(=O)O)[C@@H](C)CC)[C@@H](C)CC` [KRKLILKRILIKRK] are 16 µM (≈ 28.9 µg/mL) and 8 µM (≈ 14.5 µg/mL).
Consider `CC[C@H](C)[C@H](NC(=O)[C@H](CCCN=C(N)N)NC(=O)[C@H](Cc1c[nH]c2ccccc12)NC(=O)[C@H](CC(C)C)NC(=O)[C@@H](N)CCCN=C(N)N)C(=O)N[C@H](C(=O)N[C@H](C(=O)N[C@H](C(=O)N[C@@H](CCCN=C(N)N)C(=O)N[C@H](C(=O)N[C@@H](C)C(=O)N[C@@H](CCCN=C(N)N)C(N)=O)C(C)C)[C@@H](C)CC)C(C)C)C(C)C` [RLWRIVVIRVAR], for which the MIC in the assay on Candida albicans is 5.21 µM (≈ 7.99 µg/mL); in [18] it was 1.3 µM (≈ 2 µg/mL); against Escherichia coli UB1005, 1.3 µM (≈ 2 µg/mL); in assay [13] it was no less than 32 µM; in assay [14], no less than 32 µM; in assay [15], no less than 32 µM. The MIC in assay [19] was determined as 5.21 µM (≈ 7.99 µg/mL); in [16], 16 µM (≈ 24.6 µg/mL); in assay [20], 5.21 µM (≈ 7.99 µg/mL); in assay [7], 1.3 µM (≈ 2 µg/mL); in [21], 0.325 µM (≈ 0.5 µg/mL).
On to `CC(C)C[C@H](NC(=O)[C@H](CC(C)C)NC(=O)[C@H](CC(C)C)NC(=O)[C@H](CC(C)C)NC(=O)[C@H](CC(C)C)NC(=O)[C@H](CCCN=C(N)N)NC(=O)[C@H](CCCN=C(N)N)NC(=O)[C@@H](N)CCCN=C(N)N)C(=O)N[C@@H](CCCN=C(N)N)C(=O)N[C@@H](CCCN=C(N)N)C(=O)N[C@@H](CCCN=C(N)N)C(=O)O` [RRRLLLLLRRR], for which the MIC was 8 µM (≈ 12.2 µg/mL) in [17] and 1 µM (≈ 1.52 µg/mL) against Staphylococcus xylosus.
`CC(C)C[C@H](NC(=O)CNC(=O)[C@H](C)NC(=O)[C@H](CCCN=C(N)N)NC(=O)[C@H](CO)NC(=O)[C@H](CO)NC(=O)[C@H](CCCN=C(N)N)NC(=O)[C@@H](N)[C@@H](C)O)C(=O)N[C@@H](CCC(N)=O)C(=O)N[C@@H](Cc1c[nH]c2ccccc12)C(=O)N[C@@H](C)C(=O)N[C@H](C(=O)NCC(=O)N[C@@H](CCCN=C(N)N)C(=O)N[C@H](C(=O)N[C@@H](Cc1cnc[nH]1)C(=O)N[C@@H](CCCN=C(N)N)C(=O)N[C@@H](CC(C)C)C(=O)N[C@@H](CC(C)C)C(=O)N[C@@H](CCCN=C(N)N)C(=O)N[C@@H](CCCCN)C(=O)O)C(C)C)C(C)C` [TRSSRAGLQWAVGRVHRLLRK] displayed an MIC in assay [22] of 6 µM (≈ 14.7 µg/mL).
